Data taken from patent publication US20210346331A1, “TRPV4 ACTIVITY INHIBITOR” (KAO CORPORATION, priority 2018, published 2021).

Molecular target: T1, human TRPV4 (Homo sapiens, UniProt Q9HBA0)
T1 construct: expressed in transfected cells; host or cells: HeLa cells, transient transfection with pcDNA3.1 Directional TOPO vector
Test: Measurement of intracellular calcium ion influx activity in human TRPV4 expressing cells (HeLa, Fluo4) stimulated with TRPV4 agonist GSK1016790a
Format: cell-based
Settings: for Intracellular Ca^2+ influx rate (%): GSK + solvent = 100%, human TRPV4 expressing HeLa cells, n = 3, Mean ± S.E.; for calcium ion influx caused by the TRPV4 agonist (result in words): summary of Table 1, Dunnett's test vs GSK1016790a + solvent
Method: Polymerase chain reaction (PCR) was performed under the following conditions using a primer set comprising the oligonucleotides represented by the following base sequences which were synthesized with reference to published human TRPV4 gene sequences using a cDNA obtained by reverse-transcribing a totalRNA extracted from the Hutu-80 cell, as a template.
The obtained PCR product was purified using the High Pure PCR Product Purification Kit. The human TRPV4 gene expression vector was produced using the purified PCR product and the pcDNA3.1 Directional TOPO Expression Kit.
The HeLa cell was cultured using the DMEM/F12 medium containing 10% of fetal bovine serum. The HeLa cell was seeded in a T-75 cell culture flask at 5×10^5 cells/Flask. After three days of culture, the human TRPV4 gene expression vector (8 μg) produced in the above (2) was transfected into the cell using the TransIT-HeLaMONSTER Transfection Kit and cultured for 1 day.
The cell was detached using the Detachin and seeded at a density of 1.5×10^4 cells/90 μL/well in the DMEM/F12 medium containing 10% of fetal bovine serum on the 96 well Optical bottom plate and cultured for further 1 day.
Measurement of the intracellular calcium ion influx activity was performed using the Calcium Kit II—fluo 4. After the Loading buffer containing the Fluo4-AM and the Hanks' balanced salt solution were mixed at a ratio of 1:1, 180 μL/well of the mixture was added to the human TRPV4 expressing cell produced in the above (3) and incubated at 37° C. for 1 hour. Thereafter, fluorescence intensity (excitation wavelength: 488 nm, fluorescence wavelength: 524 nm) was measured using a fluorescent plate reader FDSS3000 (Hamamatsu Photonics K.K.) at 37° C. every 2 seconds. The GSK1016790a which is the TRPV4 agonist and each of the 4,3′-di-O-methyl-rosmarinic acid, 3′,4′-di-O-methyl-rosmarinic acid, 4,4′-di-O-methyl-rosmarinic acid, and 3,4-di-O-methyl-rosmarinic acid solution prepared in Production Examples as samples were diluted with the Hanks' balanced salt solution, 20 μL/well of the mixed solution thereof (they were mixed just before the addition) was added to the cell after 30 seconds after the start of the measurement, and the change of the fluorescence intensity was measured every 2 seconds until 300 seconds. The GSK1016790a was added so as to have a final concentration of 3 nM.
As a positive control of the TRPV4 activity inhibition, HC067047, which is the TRPV4 antagonist, was added to the cell in a final concentration of 10 μM.
The TRPV4 activity of the samples was calculated by the following equation, assuming that the influx rate of calcium ions by the treatment of the GSK1016790a, which is the TRPV4 agonist, is 100%.
Influx rate of calcium ions (%)=[(Fmax/F0)−(FmaxC2/F0C2)]/[(FmaxC1/FOC1)−(FmaxC2/F0C2)]×100 (Expression 1)
Fmax: The maximum fluorescence intensity of the well to which the GSK1016790a and a sample were added, at from 0 to 300 seconds after the start of the measurement
FmaxC1: The maximum fluorescence intensity of the well to which the GSK1016790a and a solvent were added, at from 0 to 300 seconds after the start of the measurement
FmaxC2: The maximum fluorescence intensity of the well to which only a solvent was added, at from 0 to 300 seconds after the start of the measurement
F0: The fluorescence intensity of the same well as Fmax, immediately after the start of the measurement
F0C1: The fluorescence intensity of the same well as FmaxC1, immediately after the start of the measurement
F0C2: The fluorescence intensity of the well to which only a solvent was added, immediately after the start of the measurement
The influx rates of calcium ions (n=3 for each group) in the case of adding samples were tested using the Dunnett's test by comparing with the case of adding the GSK1016790a+a solvent. […] The results were presented as the average value (Mean)±standard error (S.E.).

[1] = sample 30 μM + GSK1016790a 3 nM
[2] = sample 100 μM + GSK1016790a 3 nM

T1 sequence (Q9HBA0 whole entry): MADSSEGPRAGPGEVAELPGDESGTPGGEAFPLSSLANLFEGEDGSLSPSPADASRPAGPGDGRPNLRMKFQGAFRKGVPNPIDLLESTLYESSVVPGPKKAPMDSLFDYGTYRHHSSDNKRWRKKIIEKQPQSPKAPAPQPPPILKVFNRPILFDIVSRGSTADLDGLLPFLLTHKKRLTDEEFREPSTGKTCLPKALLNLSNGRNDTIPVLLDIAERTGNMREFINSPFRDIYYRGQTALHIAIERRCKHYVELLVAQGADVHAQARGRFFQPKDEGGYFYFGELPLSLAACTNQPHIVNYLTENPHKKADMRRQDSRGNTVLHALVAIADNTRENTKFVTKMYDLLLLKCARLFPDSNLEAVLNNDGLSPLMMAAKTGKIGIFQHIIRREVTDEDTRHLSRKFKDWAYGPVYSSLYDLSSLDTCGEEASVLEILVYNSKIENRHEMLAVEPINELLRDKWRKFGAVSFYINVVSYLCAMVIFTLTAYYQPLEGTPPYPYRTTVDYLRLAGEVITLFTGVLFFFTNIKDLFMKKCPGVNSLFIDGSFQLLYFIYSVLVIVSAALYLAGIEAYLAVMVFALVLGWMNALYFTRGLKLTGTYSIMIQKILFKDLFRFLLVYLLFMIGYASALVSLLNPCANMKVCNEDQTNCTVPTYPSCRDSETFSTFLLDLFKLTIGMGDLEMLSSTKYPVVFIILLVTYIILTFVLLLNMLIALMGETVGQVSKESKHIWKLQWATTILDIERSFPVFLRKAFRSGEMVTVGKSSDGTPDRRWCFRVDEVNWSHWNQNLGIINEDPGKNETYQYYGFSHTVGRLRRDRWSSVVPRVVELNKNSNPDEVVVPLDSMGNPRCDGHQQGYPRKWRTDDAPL

Intracellular Ca^2+ influx rate (%) [1] | Intracellular Ca^2+ influx rate (%) [2] | Structure (SMILES) | Intracellular Ca^2+ influx rate (%) (sample 10 μM + GSK1016790a 3 nM) | calcium ion influx caused by the TRPV4 agonist (result in words)
– | – | Cc1c(C(=O)Nc2cccc(C(F)(F)F)c2)cc(-c2ccccc2)n1CCCN1CCOCC1 [HC067047, reference compound] | 0.63 ± 0.14 (P < 0.001) % | –
80.66 ± 1.58 (P < 0.01) % | 78.99 ± 3.27 (P < 0.01) % | COc1ccc(CC(OC(=O)/C=C/c2ccc(O)c(O)c2)C(=O)O)cc1OC (stereo not shown) [3,4-DiMe-RA, (E)-3-(3,4-dimethoxyphenyl)-2-{[3-(3,4-dihydroxyphenyl)acryloyl]oxy}propionic acid] | – | significantly reduced the calcium ion influx
85.31 ± 8.14 (P < 0.05) % | 81.02 ± 1.18 (P < 0.01) % | COc1ccc(CC(OC(=O)/C=C/c2ccc(O)c(OC)c2)C(=O)O)cc1O (stereo not shown) [4,3′-DiMe-RA, (E)-3-(3-hydroxy-4-methoxyphenyl)-2-{[3-(4-hydroxy-3-methoxyphenyl)acryloyl]oxy}propionic acid] | – | significantly reduced the calcium ion influx
83.19 ± 4.69 (P < 0.05) % | 75.87 ± 3.39 (P < 0.001) % | COc1ccc(/C=C/C(=O)OC(Cc2ccc(OC)c(O)c2)C(=O)O)cc1O (stereo not shown) [4,4′-DiMe-RA, (E)-3-(3-hydroxy-4-methoxyphenyl)-2-{[3-(3-hydroxy-4-methoxyphenyl)acryloyl]oxy}propionic acid] | – | significantly reduced the calcium ion influx
78.81 ± 3.67 (P < 0.01) % | 81.74 ± 1.18 (P < 0.01) % | COc1ccc(/C=C/C(=O)OC(Cc2ccc(O)c(O)c2)C(=O)O)cc1OC (stereo not shown) [3′,4′-DiMe-RA, (E)-3-(3,4-dihydroxyphenyl)-2-{[3-(3,4-dimethoxyphenyl)acryloyl]oxy}propionic acid] | – | significantly reduced the calcium ion influx
